From ChEMBL document CHEMBL1782000, “Thiazole-based chalcones as potent antimicrobial agents. Synthesis and biological evaluation” (2011) come the findings set out here.

Converted amounts (≈) assume the structure as drawn.

Test [1] has as its system Fusarium sporotrichioides. Briefly: Fungicidal activity against Fusarium sporotrichioides IMT 496 after 72 hrs. The class given is functional. The following applies: IMT 496, 72 h.
The subject of test [2] is Penicillium ochrochloron. Briefly: Fungicidal activity against Penicillium ochrochloron ATCC 9112 after 72 hrs. The class given is functional. Conditions: ATCC 9112, 72 h.
For test [3], the system named is Aspergillus versicolor. Briefly: Antifungal activity against Aspergillus versicolor ATCC 11730 after 72 hrs by serial dilution method. The class given is functional. Conditions: ATCC 11730, 72 h.
Test [4] relates to Penicillium ochrochloron. The test is described as follows: Antifungal activity against Penicillium ochrochloron ATCC 9112 after 72 hrs by serial dilution method. Format: functional. Conditions: ATCC 9112, 72 h.
Test [5] deals with Aspergillus niger. Briefly: Fungicidal activity against Aspergillus niger ATCC 6275 after 72 hrs. Format: functional. The following applies: ATCC 6275, 72 h.
In test [6] the test system is Escherichia coli. Briefly: Antibacterial activity against Escherichia coli ATCC 35210 after 24 hrs by microdilution method. The class given is functional. The following applies: ATCC 35210, 24 h.
Test [7] concerns Salmonella typhimurium. The test is described as follows: Antibacterial activity against Salmonella Typhimurium ATCC 13311 after 24 hrs by microdilution method. Format: functional, Salmonella enterica subsp. enterica serovar Typhimurium. The following applies: Salmonella enterica, ATCC 13311, 24 h.
In test [8] the test system is Escherichia coli. Briefly: Bactericidal activity against Escherichia coli ATCC 35210 after 24 hrs. The class given is functional. The following applies: ATCC 35210, 24 h.
Test [9] relates to Salmonella typhimurium. The test is described as follows: Bactericidal activity against Salmonella Typhimurium ATCC 13311 after 24 hrs. The class given is functional, Salmonella enterica subsp. enterica serovar Typhimurium. Conditions: Salmonella enterica, ATCC 13311, 24 h.
Test [10] concerns Staphylococcus aureus. The test is described as follows: Bactericidal activity against Staphylococcus aureus ATCC 6538 after 24 hrs. The following applies: ATCC 6538, 24 h. Format: functional.
The test system of test [11] is Listeria monocytogenes. The test is described as follows: Antibacterial activity against Listeria monocytogenes NCTC 7973 after 24 hrs by microdilution method. The class given is functional. The following applies: NCTC 7973, 24 h.
Test [12] has as its system Aspergillus fumigatus. The test is described as follows: Fungicidal activity against Aspergillus fumigatus plant isolate after 72 hrs. The class given is functional.
For test [13], the system named is Micrococcus flavus. The test is described as follows: Bactericidal activity against Micrococcus flavus ATCC 10240 after 24 hrs. Conditions: ATCC 10240, 24 h. Format: functional.
The test system of test [14] is Trichoderma viride. Briefly: Antifungal activity against Trichoderma viride IAM 5061 after 72 hrs by serial dilution method. Format: functional. Conditions: IAM 5061, 72 h.
Test [15] has as its system Aspergillus niger. Briefly: Antifungal activity against Aspergillus niger ATCC 6275 after 72 hrs by serial dilution method. Format: functional. The following applies: ATCC 6275, 72 h.
Test [16] relates to Enterococcus faecalis. The test is described as follows: Antibacterial activity against Enterococcus faecalis isolate obtained from human after 24 hrs by microdilution method. Format: functional.
For test [17], the system named is Talaromyces funiculosus. Briefly: Antifungal activity against Penicillium funiculosum ATCC 36839 after 72 hrs by serial dilution method. Format: functional. Conditions: ATCC 36839, 72 h.
For test [18], the system named is Aspergillus fumigatus. Briefly: Antifungal activity against Aspergillus fumigatus plant isolate after 72 hrs by serial dilution method. Format: functional.
Test [19] has as its system Micrococcus flavus. The test is described as follows: Antibacterial activity against Micrococcus flavus ATCC 10240 after 24 hrs by microdilution method. The following applies: ATCC 10240, 24 h. Format: functional.
Test [20] concerns Aspergillus versicolor. Briefly: Fungicidal activity against Aspergillus versicolor ATCC 11730 after 72 hrs. Format: functional. The following applies: ATCC 11730, 72 h.
In test [21] the test system is Aspergillus ochraceus. The test is described as follows: Fungicidal activity against Aspergillus ochraceus ATCC 12066 after 72 hrs. The following applies: ATCC 12066, 72 h. Format: functional.
Test [22] deals with Pseudomonas aeruginosa. Briefly: Bactericidal activity against Pseudomonas aeruginosa ATCC 27853 after 24 hrs. The class given is functional. Conditions: ATCC 27853, 24 h.
Test [23] has as its system Bacillus cereus. Briefly: Antibacterial activity against Bacillus cereus clinical isolate after 24 hrs by microdilution method. Format: functional.
In test [24] the test system is Trichoderma viride. Briefly: Fungicidal activity against Trichoderma viride IAM 5061 after 72 hrs. Format: functional. Conditions: IAM 5061, 72 h.
Test [25] has as its system Bacillus cereus. The test is described as follows: Bactericidal activity against Bacillus cereus clinical isolate after 24 hrs. Format: functional.
Test [26] in a line: Antifungal activity against Fusarium sporotrichioides IMT 496 after 72 hrs by serial dilution method. Format: functional.
In test [27] the test system is Aspergillus ochraceus. The test is described as follows: Antifungal activity against Aspergillus ochraceus ATCC 12066 after 72 hrs by serial dilution method. Format: functional. Conditions: ATCC 12066, 72 h.
Test [28] deals with Enterococcus faecalis. Briefly: Bactericidal activity against Enterococcus faecalis isolate obtained from human after 24 hrs. Format: functional.
Test [29] has as its system Talaromyces funiculosus. The test is described as follows: Fungicidal activity against Penicillium funiculosum ATCC 36839 after 72 hrs. Conditions: ATCC 36839, 72 h. The class given is functional.
Test [30] has as its system Staphylococcus aureus. Briefly: Antibacterial activity against Staphylococcus aureus ATCC 6538 after 24 hrs by microdilution method. The class given is functional. Conditions: ATCC 6538, 24 h.
For test [31], the system named is Listeria monocytogenes. The test is described as follows: Bactericidal activity against Listeria monocytogenes NCTC 7973 after 24 hrs. Format: functional. Conditions: NCTC 7973, 24 h.
Test [32] relates to Pseudomonas aeruginosa. Briefly: Antibacterial activity against Pseudomonas aeruginosa ATCC 27853 after 24 hrs by microdilution method. The class given is functional. The following applies: ATCC 27853, 24 h.

Take `CNc1nc(C)c(C(=O)/C=C/c2cccc(Cl)c2)s1`: the MFC in [1] amounted to 683 µM (≈ 200 µg/mL); with Penicillium ochrochloron [2], 513 µM (≈ 150 µg/mL); with Aspergillus niger [5], 854 µM (≈ 250 µg/mL); against Aspergillus fumigatus [12] it was 513 µM (≈ 150 µg/mL); with Aspergillus versicolor [20] it was 513 µM (≈ 150 µg/mL); against Aspergillus ochraceus [21], 513 µM (≈ 150 µg/mL). Further, the minimal fungicidal concentration (MFC) came to 340 µM (≈ 99.5 µg/mL) against Trichoderma viride [24] and 513 µM (≈ 150 µg/mL) against Talaromyces funiculosus [29]. The MIC was found to be 340 µM (≈ 99.5 µg/mL) against Aspergillus versicolor [3]; 340 µM (≈ 99.5 µg/mL) in the test with Penicillium ochrochloron [4]; 290 µM (≈ 85.1 µg/mL) with Escherichia coli [6]; 290 µM (≈ 85.1 µg/mL) with Salmonella typhimurium [7]; 342 µM (≈ 100 µg/mL) against Listeria monocytogenes [11]; 170 µM (≈ 49.8 µg/mL) against Trichoderma viride [14]. The minimum inhibitory concentration (MIC) in the test with Aspergillus niger [15] stood at 340 µM (≈ 99.5 µg/mL); against Enterococcus faecalis [16], 85.4 µM (≈ 25 µg/mL); in the test with Talaromyces funiculosus [17], 340 µM (≈ 99.5 µg/mL); against Aspergillus fumigatus [18], 340 µM (≈ 99.5 µg/mL); against Micrococcus flavus [19], 256 µM (≈ 75.1 µg/mL); against Bacillus cereus [23], 342 µM (≈ 100 µg/mL). In addition, the minimum inhibitory concentration (MIC) turned out to be 340 µM (≈ 99.5 µg/mL) in the test with Aspergillus ochraceus [27], 342 µM (≈ 100 µg/mL) in the test with Staphylococcus aureus [30] and 342 µM (≈ 100 µg/mL) with Pseudomonas aeruginosa [32]. The MBC in the test on Escherichia coli [8] was determined as 342 µM (≈ 100 µg/mL); against Salmonella typhimurium [9], 342 µM (≈ 100 µg/mL); against Staphylococcus aureus [10], 513 µM (≈ 150 µg/mL); in the test on Micrococcus flavus [13], 342 µM (≈ 100 µg/mL); with Pseudomonas aeruginosa [22], 513 µM (≈ 150 µg/mL); in the test on Bacillus cereus [25] it was 513 µM (≈ 150 µg/mL). Further, the MBC was 342 µM (≈ 100 µg/mL) with Enterococcus faecalis [28] and 513 µM (≈ 150 µg/mL) against Listeria monocytogenes [31]. Further, the MIC (10'-2 umol/ml) in [26] came out at 17.

With `CNc1nc(C)c(C(=O)/C=C/c2ccc(Cl)cc2Cl)s1`, the MFC turned out to be 306 µM (≈ 100 µg/mL) in test [1]; 612 µM (≈ 200 µg/mL) in the test with Penicillium ochrochloron [2]; 612 µM (≈ 200 µg/mL) with Aspergillus niger [5]; 612 µM (≈ 200 µg/mL) against Aspergillus fumigatus [12]; 612 µM (≈ 200 µg/mL) with Aspergillus versicolor [20]; 612 µM (≈ 200 µg/mL) in the test on Aspergillus ochraceus [21]. For the same molecule, the minimum fungicidal concentration (MFC) in the test on Trichoderma viride [24] and in the test with Talaromyces funiculosus [29] was 306 µM (≈ 100 µg/mL) each time. Further, the minimum inhibitory concentration (MIC) is 153 µM (≈ 50 µg/mL) with Aspergillus versicolor [3]; 306 µM (≈ 100 µg/mL) with Penicillium ochrochloron [4]; 306 µM (≈ 100 µg/mL) in the test on Escherichia coli [6]; 229 µM (≈ 75 µg/mL) with Salmonella typhimurium [7]; 306 µM (≈ 100 µg/mL) with Listeria monocytogenes [11]; 153 µM (≈ 50 µg/mL) with Trichoderma viride [14]. In addition, the MIC came out at 459 µM (≈ 150 µg/mL) in the test on Aspergillus niger [15]; 306 µM (≈ 100 µg/mL) in the test with Enterococcus faecalis [16]; 153 µM (≈ 50 µg/mL) with Talaromyces funiculosus [17]; 153 µM (≈ 50 µg/mL) in the test on Aspergillus fumigatus [18]; 306 µM (≈ 100 µg/mL) in the test with Micrococcus flavus [19]; 229 µM (≈ 75 µg/mL) against Bacillus cereus [23]. Further, the MIC with Aspergillus ochraceus [27], in the test on Staphylococcus aureus [30] and against Pseudomonas aeruginosa [32] was 306 µM (≈ 100 µg/mL) in each case. The minimal bactericidal concentration (MBC) against Escherichia coli [8] is 459 µM (≈ 150 µg/mL); in the test with Salmonella typhimurium [9] it was 306 µM (≈ 100 µg/mL); in the test on Staphylococcus aureus [10], 459 µM (≈ 150 µg/mL); against Micrococcus flavus [13] it was 459 µM (≈ 150 µg/mL); against Pseudomonas aeruginosa [22] it was 306 µM (≈ 100 µg/mL); in the test on Bacillus cereus [25], 306 µM (≈ 100 µg/mL). Moreover, the minimal bactericidal concentration (MBC) with Enterococcus faecalis [28] and against Listeria monocytogenes [31] was 459 µM (≈ 150 µg/mL) throughout. The molecule also yielded an MIC (10'-2 umol/ml) in test [26] of 15.3.

Take `CC1(C)S[C@@H]2[C@H](NC(=O)[C@H](N)c3ccccc3)C(=O)N2[C@H]1C(=O)O` [AMPICILLIN]: the minimal inhibitory concentration (MIC) in the test with Escherichia coli [6], in the test on Salmonella typhimurium [7], against Listeria monocytogenes [11], in the test with Enterococcus faecalis [16], against Micrococcus flavus [19] and in the test with Bacillus cereus [23] was 248 µM (≈ 86.6 µg/mL) in each case. Also, the MIC with Staphylococcus aureus [30] and against Pseudomonas aeruginosa [32] was 248 µM (≈ 86.6 µg/mL) in each case. The minimum bactericidal concentration (MBC) in the test with Escherichia coli [8], with Salmonella typhimurium [9], against Staphylococcus aureus [10], against Micrococcus flavus [13], against Pseudomonas aeruginosa [22] and against Bacillus cereus [25] was 372 µM (≈ 130 µg/mL) throughout. Moreover, the minimum bactericidal concentration (MBC) against Enterococcus faecalis [28] and in the test on Listeria monocytogenes [31] was 372 µM (≈ 130 µg/mL) in each case.

`c1ccc(-c2ccc(C(c3ccccc3)n3ccnc3)cc2)cc1` (stereo unspecified) [BIFONAZOLE]: the minimal fungicidal concentration (MFC) in test [1] came out at 806 µM (≈ 250 µg/mL); in the test on Penicillium ochrochloron [2], 1610 µM (≈ 500 µg/mL); with Aspergillus niger [5], 201 µM (≈ 62.5 µg/mL); in the test with Aspergillus fumigatus [12] it was 61.2 µM (≈ 19 µg/mL); in the test with Aspergillus versicolor [20], 1610 µM (≈ 500 µg/mL); in the test on Aspergillus ochraceus [21] it was 806 µM (≈ 250 µg/mL). The figures for the minimal fungicidal concentration (MFC) in the test on Trichoderma viride [24] and against Talaromyces funiculosus [29] were 1610 µM (≈ 500 µg/mL) and 2420 µM (≈ 750 µg/mL), respectively. In addition, the MIC against Aspergillus versicolor [3] was determined as 25.1 µM (≈ 7.79 µg/mL); against Penicillium ochrochloron [4], 403 µM (≈ 125 µg/mL); with Trichoderma viride [14] it was 806 µM (≈ 250 µg/mL); against Aspergillus niger [15], 50.3 µM (≈ 15.6 µg/mL); in the test on Talaromyces funiculosus [17], 1610 µM (≈ 500 µg/mL); in the test on Aspergillus fumigatus [18], 3.2 µM (≈ 0.993 µg/mL). For the same molecule, the minimal inhibitory concentration (MIC) in the test on Aspergillus ochraceus [27] was determined as 403 µM (≈ 125 µg/mL). Further, in test [26], the MIC (10'-2 umol/ml) was found to be 8.06.
